According to patent US8304419B2, “Chemical compounds” (priority 2007, dated 2012):
Counter-ions that a name gives are not always drawn. Like-named read-outs stand apart in the source and are kept apart here.

Tested on: HIV wild type (WTRVA)
Assay: HeLa cell assay, wild type virus (WTRVA)
Format: cell-based, HIV-1
Parameters: scale not given here
Conditions: Human immunodeficiency virus 1, HeLa
[1] = HeLa-CD4-LTR-β-gal cells, wild type virus, read-out: WTRVA activity level
[2] = HeLa cell assay, read-out: IC50 against WTRVA

Compound | IC50 [1] | IC50 [2]
Cc1ccc2[nH]c(C(=O)NCc3ccc(Cl)c(Oc4cc(Cl)cc(C#N)c4)c3F)c(C)c2c1 [Example 52, N-({4-chloro-3-[(3-chloro-5-cyanophenyl)oxy]-2-fluorophenyl}methyl)-3,5-dimethyl-1H-indole-2-carboxamide trifluoroacetate] | 10 to 1000 nM | 
C=Cc1cc(C#N)cc(Oc2c(Cl)ccc(CNC(=O)c3[nH]c(C)nc3Cl)c2F)n1 [Example 272, 4-Chloro-N-({4-chloro-3-[(4-cyano-6-ethenyl-2-pyridinyl)oxy]-2-fluorophenyl}methyl)-2-methyl-1H-imidazole-5-carboxamide] |  | < 10 nM
Cc1nc(Cl)c(C(=O)NCc2ccc(C3CC3)c(Oc3cc(Cl)cc(C#N)c3)c2F)[nH]1 [Example 270, 4-Chloro-N-({3-[(3-chloro-5-cyanophenyl)oxy]-4-cyclopropyl-2-fluorophenyl}methyl)-2-methyl-1H-imidazole-5-carboxamide] |  | < 10 nM
N#Cc1cc(Cl)cc(Oc2c(Cl)ccc(CNC(=O)c3csnn3)c2F)c1 [Example 90, N-({4-chloro-3-[(3-chloro-5-cyanophenyl)oxy]-2-fluorophenyl}methyl)-1,2,3-thiadiazole-4-carboxamide] | < 10 nM | 
N#Cc1cc(Cl)cc(Oc2c(Cl)ccc(CNC(=O)c3cc4cc(NC(=O)c5ccncc5)ccc4[nH]3)c2F)c1 [Example 114, N-({4-chloro-3-[(3-chloro-5-cyanophenyl)oxy]-2-fluorophenyl}methyl)-5-[(4-pyridinylcarbonyl)amino]-1H-indole-2-carboxamide] | < 10 nM | 
N#Cc1cc(Oc2c(Cl)ccc(CNC(=O)c3[nH]cnc3Br)c2F)cc(C(F)F)c1 [Example 375, 4-bromo-N-[(4-chloro-3-{[3-cyano-5-(difluoromethyl)phenyl]oxy}-2-fluorophenyl)methyl]-1H-imidazole-5-carboxamide] |  | < 10 nM
N#Cc1cc(Cl)cc(Oc2c(Cl)ccc(CNC(=O)c3cc4cc(Cl)ccc4s3)c2F)c1 [Example 51, 5-chloro-N-({4-chloro-3-[(3-chloro-5-cyanophenyl)oxy]-2-fluorophenyl}methyl)-1-benzothiophene-2-carboxamide trifluoroacetate] | > 1000 nM | 
CSc1ncccc1C(=O)NCc1ccc(Cl)c(Oc2cc(Cl)cc(C#N)c2)c1F [Example 86, N-({4-chloro-3-[(3-chloro-5-cyanophenyl)oxy]-2-fluorophenyl}methyl)-2-(methylthio)-3-pyridinecarboxamide trifluoroacetate] | 10 to 1000 nM | 
N#Cc1cc(Cl)cc(Oc2cc(CNC(=O)c3ccc(Cl)c(S(N)(=O)=O)c3)ccc2Cl)c1 [Example 5, 3-(aminosulfonyl)-4-chloro-N-({4-chloro-3-[(3-chloro-5-cyanophenyl)oxy]phenyl}methyl)benzamide trifluoroacetate] | 10 to 1000 nM | 
Cc1cc(C#N)cc(Oc2c(Br)ccc(CNC(=O)c3[nH]c(N)nc3Cl)c2F)c1 [Example 240, 2-amino-N-({4-bromo-3-[(3-cyano-5-methylphenyl)oxy]-2-fluorophenyl}methyl)-4-chloro-1H-imidazole-5-carboxamide trifluoroacetate] |  | < 10 nM
Cc1nc(Cl)c(C(=O)NCc2ccc(Cl)c(Oc3cc(C#N)cc(C4CC4)c3)c2F)[nH]1 [Example 308, 4-chloro-N-({4-chloro-3-[(3-cyano-5-cyclopropylphenyl)oxy]-2-fluorophenyl}methyl)-2-methyl-1H-imidazole-5-carboxamide trifluoroacetate] |  | < 10 nM
N#Cc1cc(Cl)cc(Oc2c(Cl)ccc(CNC(=O)c3cc4cc(OC(F)(F)F)ccc4[nH]3)c2F)c1 [Example 27, N-({4-chloro-3-[(3-chloro-5-cyanophenyl)oxy]-2-fluorophenyl}methyl)-5-[(trifluoromethyl)oxy]-1H-indole-2-carboxamide] | 10 to 1000 nM | 
COc1ccc2c(C(=O)NCc3ccc(Cl)c(Oc4cc(Cl)cc(C#N)c4)c3F)c[nH]c2c1 [Example 18, N-({4-chloro-3-[(3-chloro-5-cyanophenyl)oxy]-2-fluorophenyl}methyl)-6-(methyloxy)-1H-indole-3-carboxamide] | 10 to 1000 nM | 
Cc1nc(Br)c(C(=O)NCc2ccc(Br)c(Oc3cc(Cl)cc(C#N)c3)c2F)[nH]1 [Example 233, 4-bromo-N-({4-bromo-3-[(3-chloro-5-cyanophenyl)oxy]-2-fluorophenyl}methyl)-2-methyl-1H-imidazole-5-carboxamide] |  | < 10 nM
N#Cc1cc(Cl)cc(Oc2c(Cl)ccc(CNC(=O)c3cc4cc(N)ccc4[nH]3)c2F)c1 [Example 111, 5-amino-N-({4-chloro-3-[(3-chloro-5-cyanophenyl)oxy]-2-fluorophenyl}methyl)-1H-indole-2-carboxamide trifluoroacetate] | < 10 nM | 
N#Cc1cc(Cl)cc(Oc2c(Cl)ccc(CNC(=O)c3cc[nH]n3)c2F)c1 [Example 95, N-({4-chloro-3-[(3-chloro-5-cyanophenyl)oxy]-2-fluorophenyl}methyl)-1H-pyrazole-3-carboxamide] | 10 to 1000 nM | 

Compound | IC50 [1] | IC50 [2]
COC(=O)c1ccc(C(=O)NCc2ccc(Cl)c(Oc3cc(Cl)cc(C#N)c3)c2F)cc1 [Example 15, Methyl 4-{[({4-chloro-3-[(3-chloro-5-cyanophenyl)oxy]-2-fluorophenyl}methyl)amino]carbonyl}benzoate] | 10 to 1000 nM | 
N#Cc1cc(Cl)cc(Oc2c(Cl)ccc(CNC(=O)c3cc([N+](=O)[O-])c[nH]3)c2F)c1 [Example 70, N-({4-chloro-3-[(3-chloro-5-cyanophenyl)oxy]-2-fluorophenyl}methyl)-4-nitro-1H-pyrrole-2-carboxamide trifluoroacetate] | < 10 nM | 
N#Cc1cc(Cl)cc(Oc2c(Cl)ccc(CNC(=O)c3c[nH]cn3)c2F)c1 [Example 84, N-({4-chloro-3-[(3-chloro-5-cyanophenyl)oxy]-2-fluorophenyl}methyl)-1H-imidazole-4-carboxamide trifluoroacetate] | < 10 nM | 
N#C/C=C/c1cc(Cl)cc(Oc2c(Cl)ccc(CNC(=O)c3[nH]cnc3Cl)c2F)c1 [Example 291, 4-chloro-N-{[4-chloro-3-({3-chloro-5-[(E)-2-cyanoethenyl]phenyl}oxy)-2-fluorophenyl]methyl}-1H-imidazole-5-carboxamide] |  | < 10 nM
CN1CCCC1CCOc1ccc2[nH]c(C(=O)NCc3ccc(Cl)c(Oc4cc(Cl)cc(C#N)c4)c3F)cc2c1 (centres unmarked) [Example 104, N-({4-chloro-3-[(3-chloro-5-cyanophenyl)oxy]-2-fluorophenyl}methyl)-5-{[2-(1-methyl-2-pyrrolidinyl)ethyl]oxy}-1H-indole-2-carboxamide] | < 10 nM | 
CC(=O)c1ccc2cc(C(=O)NCc3ccc(Cl)c(Oc4cc(Cl)cc(C#N)c4)c3F)[nH]c2c1 [Example 78, 6-acetyl-N-({4-chloro-3-[(3-chloro-5-cyanophenyl)oxy]-2-fluorophenyl}methyl)-1H-indole-2-carboxamide trifluoroacetate] | < 10 nM | 
C[C@@H](O)C#Cc1cc(Cl)cc(Oc2c(Cl)ccc(CNC(=O)c3[nH]cnc3Cl)c2F)c1 [Example 319, 4-chloro-N-{[4-chloro-3-({3-chloro-5-[(3R)-3-hydroxy-1-butyn-1-yl]phenyl}oxy)-2-fluorophenyl]methyl}-1H-imidazole-5-carboxamide] |  | < 10 nM
N#Cc1cc(Cl)cc(Oc2c(Cl)ccc(CNC(=O)c3cc4ccc([N+](=O)[O-])cc4[nH]3)c2F)c1 [Example 31, N-({4-chloro-3-[(3-chloro-5-cyanophenyl)oxy]-2-fluorophenyl}methyl)-6-nitro-1H-indole-2-carboxamide] | 10 to 1000 nM | 
N#Cc1cc(Cl)cc(Oc2c(Cl)ccc(CNC(=O)c3cc4ccc(OCCO)cc4[nH]3)c2F)c1 [Example 142, N-({4-chloro-3-[(3-chloro-5-cyanophenyl)oxy]-2-fluorophenyl}methyl)-6-[(2-hydroxyethyl)oxy]-1H-indole-2-carboxamide] | < 10 nM | 
COc1ccc(C(=O)NCc2ccc(Cl)c(Oc3cc(Cl)cc(C#N)c3)c2)c(C)c1 [Example 2, N-({4-chloro-3-[(3-chloro-5-cyanophenyl)oxy]phenyl}methyl)-2-methyl-4-(methyloxy)benzamide] | > 1000 nM | 
N#Cc1cc(Cl)cc(Oc2c(Cl)ccc(CNC(=O)c3nc4ccc([N+](=O)[O-])cc4[nH]3)c2F)c1 [Example 124, N-({4-chloro-3-[(3-chloro-5-cyanophenyl)oxy]-2-fluorophenyl}methyl)-5-nitro-1H-benzimidazole-2-carboxamide] | 10 to 1000 nM | 
N#Cc1cc(Cl)cc(Oc2c(Cl)ccc(CNC(=O)c3cc4cc(OC[C@H]5CNCCO5)ccc4[nH]3)c2F)c1 [Example 24, N-({4-Chloro-3-[(3-chloro-5-cyanophenyl)oxy]-2-fluorophenyl}methyl)-5-{[(2R)-2-morpholinylmethyl]oxy}-indole-2-carboxamide] | < 10 nM | 
N#Cc1cc(Cl)cc(Oc2c(Br)ccc(CNC(=O)c3[nH]c(N)nc3Br)c2F)c1 [Example 237, 2-amino-4-bromo-N-({4-bromo-3-[(3-chloro-5-cyanophenyl)oxy]-2-fluorophenyl}methyl)-1H-imidazole-5-carboxamide trifluoroacetate] |  | < 10 nM
CS(=O)(=O)c1ccc(C(=O)NCc2ccc(Cl)c(Oc3cc(Cl)cc(C#N)c3)c2)c(Cl)c1 [Example 8, 2-chloro-N-({4-chloro-3-[(3-chloro-5-cyanophenyl)oxy]phenyl}methyl)-4-(methylsulfonyl)benzamide] | 10 to 1000 nM | 
N#Cc1cc(Cl)cc(Oc2c(C(F)F)ccc(CNC(=O)c3[nH]cnc3Cl)c2F)c1 [Example 252, 4-chloro-N-{[3-[(3-chloro-5-cyanophenyl)oxy]-4-(difluoromethyl)-2-fluorophenyl]methyl}-1H-imidazole-5-carboxamide] |  | < 10 nM
CSc1ncc(Cl)c(C(=O)NCc2ccc(Cl)c(Oc3cc(Cl)cc(C#N)c3)c2F)n1 [Example 101, 5-chloro-N-({4-chloro-3-[(3-chloro-5-cyanophenyl)oxy]-2-fluorophenyl}methyl)-2-(methylthio)-4-pyrimidinecarboxamide] | 10 to 1000 nM | 
